Laboratory results as given in ChEMBL document CHEMBL1201862, “PubChem BioAssay data set” (2004).
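Briefly, cells in 96-well plates were exposed to five compound concentrations for 48 h, and endpoints were estimated by linear interpolation. Here, GI50 denotes the concentration required for 50% inhibition of growth.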 The source made the active and inactive calls. Rule as the data show it: active = GI50 up to about 1.1 µM and inactive = higher.

Tests used:
Experiment in all cases: NCI anticancer screen, dose series, 48 h
786-0 = tested on: 786-0
A549 = tested on: A549
ACHN = tested on: ACHN
COLO 205 = tested on: COLO 205
HCC 2998 = tested on: HCC 2998
HOP-62 = tested on: HOP-62
IGROV-1 = tested on: IGROV-1
K562 = tested on: K562
Malme-3M = tested on: Malme-3M
NCI-H522 = tested on: NCI-H522
OVCAR-8 = tested on: OVCAR-8
SF-295 = tested on: SF-295
SK-MEL-2 = tested on: SK-MEL-2
SK-OV-3 = tested on: SK-OV-3
SW-620 = tested on: SW-620
TK-10 = tested on: TK-10
U-251 = tested on: U-251
UACC-62 = tested on: UACC-62

Measured: GI50

COc1ccc(-c2nc3c(nc2-c2ccc(OC)cc2)N(C)S(=O)(=O)N=C3N)cc1
inactive: 786-0 16.9 µM | A549 27 µM | ACHN 19.1 µM | COLO 205 14.7 µM | HCC 2998 35.6 µM | HOP-62 33.6 µM | IGROV-1 28.1 µM | K562 24.4 µM | Malme-3M 22.7 µM | NCI-H522 9.59 µM | OVCAR-8 34.2 µM | SF-295 22.3 µM | SK-MEL-2 20.5 µM | SK-OV-3 24.6 µM | SW-620 28.8 µM | TK-10 28.1 µM | U-251 26.1 µM | UACC-62 22.8 µM

CCOc1ccc2c(c1)[n+]([O-])c(C(N)=O)c(N)[n+]2[O-]
inactive: 786-0 > 100 µM | A549 > 100 µM | ACHN > 100 µM | COLO 205 > 100 µM | HOP-62 > 100 µM | IGROV-1 > 100 µM | K562 > 100 µM | Malme-3M > 100 µM | NCI-H522 > 100 µM | OVCAR-8 > 100 µM | SF-295 > 100 µM | SK-MEL-2 > 100 µM | SK-OV-3 > 100 µM | SW-620 > 100 µM | U-251 > 100 µM

N#CC1=C(c2ccccc2)OC2(N)OC(c3ccccc3)=C(C#N)C12C#N (centres undefined)
inactive: 786-0 > 100 µM | A549 > 100 µM | ACHN > 100 µM | COLO 205 > 100 µM | HCC 2998 > 100 µM | HOP-62 > 100 µM | IGROV-1 > 100 µM | K562 > 100 µM | Malme-3M > 100 µM | OVCAR-8 74.8 µM | SF-295 > 100 µM | SK-MEL-2 > 100 µM | SK-OV-3 > 100 µM | SW-620 > 100 µM | TK-10 > 100 µM | U-251 > 100 µM | UACC-62 > 100 µM

Cc1ccc(S(=O)(=O)C2CC2(Cl)Cl)cc1 (centres undefined)
inactive: 786-0 20.7 µM | A549 > 100 µM | ACHN 25.6 µM | COLO 205 21.6 µM | HCC 2998 44.4 µM | IGROV-1 26.9 µM | K562 26.5 µM | Malme-3M 19.6 µM | NCI-H522 12.5 µM | OVCAR-8 20.9 µM | SF-295 38.6 µM | SK-MEL-2 33.2 µM | SK-OV-3 > 100 µM | SW-620 22.3 µM | TK-10 > 100 µM | U-251 > 100 µM | UACC-62 27.4 µM

COC(=O)CCC(=O)CC(=O)C(=O)Nc1c(Cl)cc([N+](=O)[O-])cc1Cl
inactive: 786-0 > 100 µM | A549 > 100 µM | ACHN > 100 µM | COLO 205 > 100 µM | HCC 2998 > 100 µM | HOP-62 > 100 µM | IGROV-1 > 100 µM | K562 > 100 µM | Malme-3M > 100 µM | NCI-H522 45.3 µM | OVCAR-8 > 100 µM | SF-295 > 100 µM | SK-MEL-2 > 100 µM | SK-OV-3 > 100 µM | TK-10 > 100 µM | U-251 > 100 µM | UACC-62 > 100 µM

O=c1[nH]cc(F)c(=O)n1C1OC(CO)C(O)C1O (centres undefined)
inactive: 786-0 > 100 µM | A549 > 100 µM | ACHN > 100 µM | COLO 205 > 100 µM | HCC 2998 > 100 µM | HOP-62 > 100 µM | K562 > 100 µM | Malme-3M > 100 µM | NCI-H522 > 100 µM | OVCAR-8 > 100 µM | SF-295 > 100 µM | SK-MEL-2 > 100 µM | SK-OV-3 > 100 µM | SW-620 > 100 µM | TK-10 > 100 µM | U-251 > 100 µM

CCOC(=O)[C@H]1Nc2ccc(O)cc2C2c3ccccc3CC21 (some centres undefined)
inactive: 786-0 77.8 µM | A549 65.3 µM | ACHN 51.4 µM | COLO 205 > 100 µM | HCC 2998 49 µM | HOP-62 > 100 µM | IGROV-1 > 100 µM | K562 52.5 µM | Malme-3M > 100 µM | NCI-H522 61.7 µM | OVCAR-8 > 100 µM | SF-295 > 10 µM | SK-MEL-2 > 100 µM | SW-620 > 100 µM | TK-10 > 100 µM | U-251 88.7 µM | UACC-62 51.3 µM

COc1nc2c(c(O)c(C)c(=O)n2OC2OCC(OC(C)=O)C(OC(C)=O)C2OC(C)=O)c(=O)n1C (centres undefined)
inactive: 786-0 > 100 µM | A549 > 100 µM | ACHN > 100 µM | COLO 205 > 100 µM | HCC 2998 > 100 µM | HOP-62 > 100 µM | IGROV-1 > 100 µM | K562 > 100 µM | NCI-H522 91.8 µM | OVCAR-8 > 100 µM | SF-295 > 100 µM | SK-MEL-2 > 100 µM | SW-620 > 100 µM | TK-10 > 100 µM | U-251 > 100 µM | UACC-62 > 100 µM

C[C@@H]1OC(=O)N2CCCC(=C3SCCCS3)C12 (some centres undefined)
inactive: 786-0 > 100 µM | A549 78.5 µM | ACHN 93.5 µM | COLO 205 > 100 µM | IGROV-1 90.8 µM | K562 43.6 µM | Malme-3M > 100 µM | NCI-H522 59.2 µM | OVCAR-8 57.9 µM | SF-295 90.2 µM | SK-MEL-2 > 100 µM | SK-OV-3 > 100 µM | SW-620 > 100 µM | TK-10 > 100 µM | U-251 > 100 µM | UACC-62 56.1 µM

COC(=O)C(C(=O)C(=O)Nc1ccc(C(F)(F)F)cc1[N+](=O)[O-])c1csc(-n2nc(-c3ccccc3)cc2-c2ccccc2)n1 (centres undefined)
inactive: 786-0 > 100 µM | A549 > 100 µM | COLO 205 > 100 µM | HCC 2998 > 100 µM | HOP-62 > 100 µM | IGROV-1 > 100 µM | K562 > 100 µM | Malme-3M > 100 µM | NCI-H522 > 100 µM | OVCAR-8 > 100 µM | SF-295 > 100 µM | SK-MEL-2 > 100 µM | SK-OV-3 > 100 µM | SW-620 > 100 µM | TK-10 > 100 µM | U-251 > 100 µM | UACC-62 > 100 µM

CCCC(S(=O)(=O)c1ccccc1)S(=O)(=O)c1ccccc1
inactive: 786-0 > 100 µM | A549 > 100 µM | ACHN > 100 µM | HCC 2998 > 100 µM | HOP-62 > 100 µM | IGROV-1 > 100 µM | K562 > 100 µM | Malme-3M > 100 µM | OVCAR-8 > 100 µM | SF-295 83.4 µM | SK-MEL-2 > 100 µM | SK-OV-3 > 100 µM | SW-620 > 100 µM | TK-10 > 100 µM | U-251 > 100 µM | UACC-62 > 100 µM

O=C1C(N2C(=O)c3ccccc3C2=O)CN1C(COCc1ccccc1)c1ccc(OCc2ccccc2)cc1 (centres undefined)
inactive: 786-0 > 100 µM | A549 > 100 µM | ACHN > 100 µM | COLO 205 > 100 µM | HCC 2998 > 100 µM | HOP-62 > 100 µM | IGROV-1 > 100 µM | K562 > 100 µM | Malme-3M > 100 µM | NCI-H522 > 100 µM | OVCAR-8 > 100 µM | SF-295 > 100 µM | SK-OV-3 > 100 µM | SW-620 > 100 µM | TK-10 > 100 µM | U-251 > 100 µM | UACC-62 > 100 µM
